Structures can show the parent of a compound that is named as a salt.

This note sets out measurements from patent US20140057895A1, “INDAZOLE- AND PYRROLOPYRIDINE-DERIVATIVE AND PHARMACEUTICAL USE THEREOF” (priority 2011, published 2014).

T1 sequence (O70528 whole entry): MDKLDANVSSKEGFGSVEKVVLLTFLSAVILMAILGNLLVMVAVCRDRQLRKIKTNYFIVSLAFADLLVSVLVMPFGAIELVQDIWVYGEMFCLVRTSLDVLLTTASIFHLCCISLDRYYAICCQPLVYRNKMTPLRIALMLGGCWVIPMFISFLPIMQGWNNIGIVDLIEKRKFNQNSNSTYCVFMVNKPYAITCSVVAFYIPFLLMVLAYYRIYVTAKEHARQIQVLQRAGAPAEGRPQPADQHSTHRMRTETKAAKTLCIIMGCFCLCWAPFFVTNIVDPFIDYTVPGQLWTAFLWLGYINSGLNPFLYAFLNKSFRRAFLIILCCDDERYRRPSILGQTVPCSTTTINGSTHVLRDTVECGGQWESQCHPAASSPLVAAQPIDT

This experiment has as its target T1, 5-HT4 receptor (Cavia porcellus, UniProt O70528).
T1 construct: striatum was isolated which was cryopreserved at −80° C. until use; from tissue; host or cells: guinea pig (Slc-Hartley) striatum membranes
Kind of experiment: Test Example 3: Guinea pig 5-HT4 receptor binding assay, [3H]-GR113808, striatum membranes (Table 98). The following applies: Guinea pig 5-HT4 receptor binding assay, [3H]-GR113808, striatum membranes; mean value of each group; read-out: IC50. On the procedure: The guinea pig 5-HT4 receptor binding assay and preparations of receptor membrane preparations herein were carried out according to a method of Grossman et al. [see, British J. Pharmacol., (1993) 109, 618].
Slc-Hartley guinea pigs (body weight 300 g to 400 g) were decapitated to remove brain rapidly, and striatum was isolated which was cryopreserved at −80° C. until use. To the obtained tissues were added fifteen fold of Hepes buffer (50 mM, pH 7.4, 4° C.), and the mixture was homogenized by Teflon (trademark) homogenizer and centrifuged at 48,000×g (4° C.) for 15 minutes. To the resulting precipitate was added Hepes buffer (1 ml) to 30 mg by wet weight of tissues, and the mixture was suspended to give receptor membrane preparations.
To an assay tube were added 0.1 nM [^3H]-GR113808 {chemical name: [1-[2-(methylsulfonylamino) ethyl]-4-piperidinyl]methyl 1-methylindole-3-carboxylate}, receptor membrane preparations, and Hepes buffer (50 mM, pH 7.4, 4° C., 1 ml) containing test compounds or 30 μM serotonin; and the mixture was incubated at 37° C. for 30 minutes. On quenching the reaction, the mixture was rapidly filtered on whatman GF/B filter, which was presoaked in 0.1% polyethyleneimine for 1 hour, by using Brandel cell Harvester, and washed with ice-cooled 50 mM Tris-HCl (pH 7.7, 4 ml) three times. To the filter after filtration was added a liquid scintillator (Ecoscint), and then a radioactivity was determined by a liquid scintillation counter.
50% Inhibition concentrations (IC50) were determined from inhibition rates of test compounds to specific bindings which were obtained by subtracting nonspecific bindings from total binding amounts of [^3H]-GR113808. […]
For the compound `CC(=O)N1CCOC(CN2CCC(c3nc(-n4nc(C(C)C)c5cccc(F)c54)no3)CC2)C1` (stereo not shown) [Example 483, 1-{2-[(4-{3-[7-fluoro-3-(propan-2-yl)-1H-indazol-1-yl]-1,2,4-oxadiazol-5-yl}piperidin-1-yl)methyl]morpholin-4-yl}ethanone], the IC50 (in general, the midpoint of a concentration-inhibition curve) was determined as 35.7 nM.
Next, `CC(C)c1nn(-c2noc(C3CCN(C4CCN(C(=O)CO)CC4)CC3)n2)c2c(F)ccc(O)c12` [Example 553, 1-(4-{3-[7-fluoro-4-hydroxy-3-(propan-2-yl)-1,1′-indazol-1-yl]-1,2,4-oxadiazol-5-yl}-1,4′-bipiperidin-1′-yl)-2-hydroxyethanone]: 18.7 nM; `COc1cccc2c(C(C)C)nn(-c3noc(C4CCN(C5CCOCC5)CC4)n3)c12` [Example 441, 7-methoxy-3-(propan-2-yl)-1-{5-[1-(tetrahydro-2H-pyran-4-yl)piperidin-4-yl]-1,2,4-oxadiazol-3-yl}-1H-indazole]: 78.2 nM; `COC(=O)N1CCOC(CN2CCC(c3nc(-n4nc(C(C)C)c5cccc(F)c54)no3)CC2)C1` (stereo not shown) [Example 484, methyl 2-[(4-{3-[7-fluoro-3-(propan-2-yl)-1H-indazol-1-yl]-1,2,4-oxadiazol-5-yl}piperidin-1-yl)methyl]morpholine-4-carboxylate]: 28.1 nM.
The result for `CC(=O)N1CCC(CN2CCC(c3nc(-n4nc(C(C)C)c5ccc(F)c(F)c54)no3)CC2)CC1` [Example 480, 1-{4-[(4-{3-[6,7-difluoro-3-(propan-2-yl)-1H-indazol-1-yl]-1,2,4-oxadiazol-5-yl}piperidin-1-yl)methyl]piperidin-1-yl}ethanone trifluoroacetate] reads 27.5 nM; that for `CC(C)c1nn(-c2noc(C3CCN(CCC(=O)c4ccccc4)CC3)n2)c2c(F)cccc12` [Example 396, 3-(4-{3-[7-fluoro-3-(propan-2-yl)-1H-indazol-1-yl]-1,2,4-oxadiazol-5-yl}piperidin-1-yl)-1-phenylpropan-1-one], under 20 nM.
The result for `CC(C)c1nn(-c2noc(C3CCN(C4CCOCC4)CC3)n2)c2cccc(Cl)c12` [Example 422, 4-chloro-3-(propan-2-yl)-1-{5-[1-(tetrahydro-2H-pyran-4-yl)piperidin-4-yl]-1,2,4-oxadiazol-3-yl}-1H-indazole] reads 55 nM; that for `Cc1ccc2c(C(C)C)nn(-c3noc(C4CCN(CC5CCOCC5)CC4)n3)c2c1` [Example 436, 6-methyl-3-(propan-2-yl)-1-{5-[1-(tetrahydro-2H-pyran-4-ylmethyl)piperidin-4-yl]-1,2,4-oxadiazol-3-yl}-1H-indazole trifluoroacetate], 179 nM; that for `CC(C)c1nn(-c2noc(C3CCN(C4CCOCC4)CC3)n2)c2c(F)c(F)ccc12` [Example 454, 6,7-difluoro-3-(propan-2-yl)-1-{5-[1-(tetrahydro-2H-pyran-4-yl)piperidin-4-yl]-1,2,4-oxadiazol-3-yl}-1H-indazole trifluoroacetate], under 20 nM.
As for `CCCCN1CCC(c2cnc(-n3nc(C(C)C)c4cccc(F)c43)s2)CC1` [Example 563, 1-[5-(1-butylpiperidin-4-yl)-1,3-thiazol-2-yl]-7-fluoro-3-(propan-2-yl)-1H-indazole], the IC50 came to 222 nM.
Next, `CC(=O)N1CCC(N2CCC(c3nc(-n4nc(C(C)C)c5cccc(C)c54)no3)CC2)CC1` [Example 413, 1-(4-{3-[7-methyl-3-(propan-2-yl)-1H-indazol-1-yl]-1,2,4-oxadiazol-5-yl}-1,4′-bipiperidin-1′-yl)ethanone]: under 20 nM.
Turning to `CC(=O)N1CCC(N2CCC(c3nc(-n4nc(C(C)C)c5c(C)cccc54)no3)CC2)CC1` [Example 408, 1-(4-{3-[4-methyl-3-(propan-2-yl)-1H-indazol-1-yl]-1,2,4-oxadiazol-5-yl}-1,4′-bipiperidin-1′-yl)ethanone], the IC50 was determined as 29.5 nM.
With `CC(=O)N1CCC(N2CCC(c3nc(-n4nc(C(C)C)c5c(Cl)cccc54)no3)CC2)CC1` [Example 407, 1-(4-{3-[4-chloro-3-(propan-2-yl)-1H-indazol-1-yl]-1,2,4-oxadiazol-5-yl}-1,4′-bipiperidin-1′-yl)ethanone], the IC50 worked out at 101 nM.
Consider `CC(C)c1nn(-c2noc(C3CCN(C4CCN(S(C)(=O)=O)CC4)CC3)n2)c2c(F)cccc12` [Example 466, 4-{3-[7-fluoro-3-(propan-2-yl)-1H-indazol-1-yl]-1,2,4-oxadiazol-5-yl}-1′-(methylsulfonyl)-1,4′-bipiperidine trifluoroacetate], for which the IC50 was under 20 nM.
Take `CC(C)c1nn(-c2noc(C3CCN(C4CCC(F)(F)CC4)CC3)n2)c2c(F)cccc12` [Example 442, 1-{5-[1-(4,4-difluorocyclohexyl)piperidin-4-yl]-1,2,4-oxadiazol-3-yl}-7-fluoro-3-(propan-2-yl)-1H-indazole]: the concentration for half-maximal inhibition (IC50) was under 20 nM.
The result for `CC(C)c1nn(-c2noc(C3CCN(C4CCC4)CC3)n2)c2cccc(Cl)c12` [Example 421, 4-chloro-1-[5-(1-cyclobutylpiperidin-4-yl)-1,2,4-oxadiazol-3-yl]-3-(propan-2-yl)-1H-indazole] reads 129 nM; that for `COc1ccc2c(C(C)C)nn(-c3noc(C4CCN(C5CCN(C(C)=O)CC5)CC4)n3)c2c1F` [Example 404, 1-(4-{3-[7-fluoro-6-methoxy-3-(propan-2-yl)-1H-indazol-1-yl]-1,2,4-oxadiazol-5-yl}-1,4′-bipiperidin-1′-yl)ethanone], 100 nM; that for “5-methyl-3-(propan-2-yl)-1-{5-[1-(tetrahydro-2H-pyran-4-yl)piperidin-5-yl]-1,2,4-oxadiazol-3-yl}-1H-indazole [Example 428]”, 248 nM.
Next, `COC(=O)CCCN1CCC(c2nc(-n3nc(C(C)C)c4cccc(F)c43)no2)CC1` [Example 397, methyl 4-(4-{3-[7-fluoro-3-(propan-2-yl)-1H-indazol-1-yl]-1,2,4-oxadiazol-5-yl}piperidin-1-yl)butanoate]: under 20 nM.
The result for `CC(=O)N1CCC(N2CCC(c3nc(-n4nc(C(C)C)c5c(O)ccc(F)c54)no3)CC2)CC1` [Example 555, 1-(4-{3-[7-fluoro-4-hydroxy-3-(propan-2-yl)-1H-indazol-1-yl]-1,2,4-oxadiazol-5-yl}-1,4′-bipiperidin-1′-yl)ethanone] reads 24.9 nM; that for `C=C(C)c1nn(-c2noc(C3CCN(C4CCN(C(=O)CO)CC4)CC3)n2)c2c(F)cccc12` [Example 521, 1-(4-{3-[7-fluoro-3-(prop-1-en-2-yl)-1H-indazol-1-yl]-1,2,4-oxadiazol-5-yl}-1,4′-bipiperidin-1'-yl)-2-hydroxyethanone hydrochloride], 93.7 nM.
`CC(C)c1nn(-c2noc(C3CCN(C4CC[S+]([O-])CC4)CC3)n2)c2c(F)cccc12` (stereo not shown) [Example 443, 7-fluoro-1-{5-[1-(1-oxidotetrahydro-2H-thiopyran-4-yl)piperidin-4-yl]-1,2,4-oxadiazol-3-yl}-3-(propan-2-yl)-1H-indazole]: the IC50 came to 18.1 nM.
Take `CC(=O)N1CCC(N2CCC(c3nc(-n4nc(C(C)C)c5ccc(C)cc54)no3)CC2)CC1` [Example 462, 1-(4-{3-[6-methyl-3-(propan-2-yl)-1H-indazol-1-yl]-1,2,4-oxadiazol-5-yl}-1,4′-bipiperidin-1′-yl}ethanone trifluoroacetate]: the IC50 came to 109 nM.
The result for `CC(C)c1nn(-c2noc(C3CCN(CCC(=O)Nc4ccccc4)CC3)n2)c2c(F)cccc12` [Example 398, 3-(4-{3-[7-fluoro-3-(propan-2-yl)-1H-indazol-1-yl]-1,2,4-oxadiazol-5-yl}piperidin-1-yl)-N-phenylpropanamide] reads under 20 nM; that for `CC(=O)N1CCC(N2CCC(c3nc(-n4nc(C(C)C)c5cccc(F)c54)no3)C2)CC1` (stereo not shown) [Example 415, 1-[4-(3-{3-[7-fluoro-3-(propan-2-yl)-1H-indazol-1-yl]-1,2,4-oxadiazol-5-yl}pyrrolidin-1-yl)piperidin-1-yl]ethanone], under 20 nM.
For the compound `CC(C)c1nn(-c2noc(C3CCN(C4CCC4)CC3)n2)c2cc(Cl)ccc12` [Example 431, 6-chloro-1-[5-(1-cyclobutylpiperidin-4-yl)-1,2,4-oxadiazol-3-yl]-3-(propan-2-yl)-1H-indazole], the IC50 was found to be 130 nM.
Consider `CCc1nn(-c2noc(C3CCN(C4CCOCC4)CC3)n2)c2cc(C)ccc12` [Example 437, 3-ethyl-6-methyl-1-{5-[1-(tetrahydro-2H-pyran-4-yl)piperidin-4-yl)-1,2,4-oxadiazol-3-yl}-1H-indazole trifluoroacetate], for which the IC50 amounted to 113 nM.
The result for `CC(C)c1nn(-c2noc(C3CCN(CC4CCOCC4)CC3)n2)c2c(F)c(F)ccc12` [Example 453, 6,7-difluoro-3-(propan-2-yl)-1-{5-[1-(tetrahydro-2H-pyran-4-ylmethyl)piperidin-4-yl]-1,2,4-oxadiazol-3-yl}-1H-indazole trifluoroacetate] reads 28.1 nM.
